Where two headings read alike, the source gives them in different places.
Columns and labels:
[1] = tested on: Human breast carcinoma cells MDA-MB-231; test: MTT anti-proliferative assay, MDA-MB-231; type: cell-based; conditions: mean ± SD
Description: (§1) Human breast carcinoma cells MDA-MB-231, human hepatocellular carcinoma cells HepG2, and human lung carcinoma cells A549, were purchased from ATCC, or were gifted by Professor Burton B. Yang from University of Toronto, Canada. The anti-proliferative effect of total extract (GL), fractions (GL1–GL4), and compounds 1–14 on tumor cell lines was evaluated by MTT assay (Franchi et al., [2012]). Total extract (GL) and fractions (GL1–GL4) were evaluated for their anti-proliferative effect on three types of carcinoma cells (MDA-MB-231, HepG2, and A549). Compounds 1–14 were chosen to evaluate for their anti-proliferative effect against MDA-MB-231 and HepG2 cells. Hundred microliters of cells suspension (5 × 10^4 cells/mL) was seeded into wells of a 96-well plate. After being incubated for 4 h, different concentrations of fractions/compounds were added onto the cells and incubated. After 48 h, 150 μL of 3-[4,5-dimethylthiazol-2-yl]-2,5-diphenyl tetrazolium bromide (MTT) solution (Sigma) was added to each well, and cells were kept being incubated for 4 h. After removing the MTT/medium, DMSO (100 μL) of was added to each well and was agitated at 60 rpm for 5 min. The optical density of the assay 96-well plate was read (λ = 540 nm) on a microplate reader.
(§2) IC50-values were calculated and analyzed using SPSS with three replications, each carried out in triplicate. Data were expressed as mean ± SD and analyzed by one-way ANOVA followed by two-tailed Student's t-test. A difference was considered significant at the P < 0.05 or P < 0.01 level.

[2] = tested on: human hepatocellular carcinoma cells HepG2; test: MTT anti-proliferative assay, HepG2; type: cell-based; conditions: for Experimental pIC50: HepG2
Description: as §1, §2

[3] = tested on: mouse embryonic fibroblasts (NIH/3T3); test: Cytotoxicity on normal cells NIH/3T3; type: cell-based
Description: Anti-proliferative activity evaluation against two types of human cancer cells (MDA-MB-231 and HepG2), HUVECs and mouse embryonic fibroblasts (NIH/3T3, used as normal cells) were then carried out.

[4] = tested on: HUVECs; test: Anti-angiogenesis activity, MTT assay on HUVECs; type: cell-based, human; conditions: for EC50: MTT, 48 h, mean ± SD; for selective inhibition, tumor cells versus HUVECs: comparison of MDA-MB-231/HepG2 and HUVEC values
Description: HUVECs (KeyGEN BioTECH Co., Ltd, Jiangsu, China) were cultured in ECM (endothelial cell medium) with 5% (v/v) FBS, 1% (v/v) ECGS, and 1% penicillin-streptomycin (w/v) at 37°C in a cell incubator. The MTT assay was employed to assess the anti-angiogenic effect of the isolated compounds against HUVECs as described previously with mild modification (Liang et al., [2015]; Nguyen et al., [2015]). Briefly, HUVECs were seeded into a 96-well plate and incubated. Different concentrations of compounds 1–14 were added onto the cells after 4 h, and continued to be co-incubated for 48 h. Next, the cells were co-incubated with MTT (Sigma, St. Louis, MO, USA) to a final concentration of 0.05% for another 4 h. Then, replacing the MTT solution with […] DMSO, and kept the plates being shaken for 3 min. The optical density of each well was measured on a microplate reader at λ = 570 nm.
as §2

[5] = Homo sapiens, HepG2, 48 h, MTT, 48 h, mean ± SD, read-out: IC50 HepG2
[6] = Homo sapiens, HepG2, HepG2, converted from observed IC50s (μM), read-out: Experimental pIC50 (converted)
[7] = Mus musculus, NIH3T3, mean ± SD
[8] = MTT, 48 h, mean ± SD, read-out: IC50 HepG2
[9] = converted from observed IC50s (μM)

`CO[C@@H]1C=C2[C@@H]3CC[C@H]([C@H](C)/C=C/[C@H](C)C(C)C)[C@@]3(C)CC[C@@H]2[C@@]2(C)CC[C@H](O)[C@H]3O[C@@]312` [Compound 1, (22E)-4α, 5α-epoxy-6β-methoxyergosta-7, 22-diene-3β-ol] was tested, and the IC50 ([1]; Homo sapiens, MDA-MB-231, 48 h) was 176 ± 5.1 µM, the IC50 [2, 5] was 138 ± 8.3 µM and the IC50 [2, 6] was 138 µM. For the same compound, the EC50 [3, 7] was 422 ± 9.3 µM and the EC50 ([4]; Homo sapiens, HUVEC) was 144 ± 6.1 µM.
In the case of `CC(C)[C@@H](C)/C=C/[C@@H](C)[C@H]1CC[C@H]2C3=C[C@@H](O)[C@@]4(O)C[C@@H](O)CC[C@]4(C)C3=CC[C@]12C` [Compound 2, (3β, 5α, 6β, 22E)-ergosta-7, 9 (11), 22-triene-3,5,6-triol], the IC50 ([1]; 48 h) is reported as 56.3 ± 1.5 µM, the IC50 ([1]; Homo sapiens, MDA-MB-231, 48 h) is reported as less than 100 µM and the IC50 [2, 5] is reported as less than 100 µM. The IC50 [2, 6] was 62.5 µM, the IC50 [2, 8] was 62.5 ± 1.3 µM and the EC50 [3, 7] was 303 ± 11.9 µM. The EC50 ([4]; Homo sapiens, HUVEC) was 142 ± 3.6 µM and the “selective inhibition, tumor cells versus HUVECs” value [4] was “significant selective inhibition against cancer cells”.
`CC(C)[C@@H](C)/C=C/[C@@H](C)[C@H]1CC[C@H]2C3=C[C@@H](O)[C@@]4(O)C[C@@H](O)CC[C@]4(C)[C@H]3CC[C@]12C` [Compound 4, (3β, 5α, 6β, 22E)-ergosta-7, 22-diene-3,5,6-triol] showed an IC50 ([1]; Homo sapiens, MDA-MB-231, 48 h) of 149 ± 8.7 µM, an IC50 [2, 5] of 175 ± 15.9 µM and an IC50 [2, 6] of 175 µM. It also gave an EC50 [3, 7] greater than 500 µM and an EC50 ([4]; Homo sapiens, HUVEC) of 345 ± 13.7 µM.
Compound `CC(C)[C@@H](C)/C=C/[C@@H](C)[C@H]1CC[C@H]2C3=C[C@H](O)[C@@]4(O)C[C@@H](O)CC[C@]4(C)[C@H]3CC[C@]12C` [Compound 5, (3β, 5α, 6α, 22E)-ergosta-7, 22-diene-3,5,6-triol] has an IC50 ([1]; Homo sapiens, MDA-MB-231, 48 h) of 114 ± 9.9 µM, an IC50 [2, 5] of 197 ± 20.1 µM and an IC50 [2, 6] of 197 µM. The EC50 [3, 7] was greater than 500 µM and the EC50 ([4]; Homo sapiens, HUVEC) was 206 ± 12.2 µM.
For `CC(C)[C@@H](C)/C=C/[C@@H](C)[C@H]1CC[C@H]2C3=C[C@H](O)[C@@]4(O)C[C@@H](O)CC[C@]4(C)[C@@]3(O)CC[C@]12C` [Compound 6, (3β, 5α, 6α, 9α, 22E)-ergosta-7, 22-diene-3,5,6,9-tetrol], the IC50 ([1]; Homo sapiens, MDA-MB-231, 48 h) was 224 ± 10 µM, the IC50 [2, 5] was 185 ± 9.5 µM and the IC50 [2, 6] was 185 µM. For the same compound, the EC50 [3, 7] was greater than 500 µM and the EC50 ([4]; Homo sapiens, HUVEC) was 384 ± 10.9 µM.
`CC(C)[C@@H](C)/C=C/[C@@H](C)[C@H]1CC[C@H]2C3=C(CC[C@]12C)[C@@]1(C)CC[C@H](O)C[C@@]12O[C@H]2[C@H]3O` [Compound 9, (3β, 5α, 6α, 7α, 22E)-5,6-epoxy-ergosta-8, 22-diene-3,7-diol] was tested, and the IC50 ([1]; Homo sapiens, MDA-MB-231, 48 h) was 20.3 ± 2.2 µM, the “increase of activity compared with compound 2” value ([2]; HepG2 IC50) was “approximately 3 folds” and the IC50 [2, 5] was 22.1 ± 0.9 µM. For the same compound, the IC50 [2, 6] was 22.1 µM, the EC50 [3, 7] was 183 ± 10.3 µM and the EC50 ([4]; Homo sapiens, HUVEC) was 27.9 ± 1.7 µM.
With `CC(C)[C@@H](C)/C=C/[C@@H](C)[C@H]1CCC2=C3[C@H](O)[C@@H]4O[C@@]45C[C@@H](O)CC[C@]5(C)[C@H]3CC[C@@]21C` [Compound 10, (3β, 5α, 6α, 7α, 22E)-5,6-epoxy-ergosta-8 (14), 22-diene-3,7-diol] the IC50 ([1]; Homo sapiens, MDA-MB-231, 48 h) was 46.7 ± 5.4 µM, the IC50 [2, 5] was 50.6 ± 5.3 µM and the IC50 [2, 6] was 50.6 µM. The EC50 [3, 7] was 194 ± 9.6 µM and the EC50 ([4]; Homo sapiens, HUVEC) was 48.7 ± 2.9 µM.
With `CC(C)[C@@H](C)/C=C/[C@@H](C)[C@H]1CC[C@@H]2[C@]1(C)CC[C@H]1[C@]23C=C[C@]2(C[C@@H](O)CC[C@]12C)OO3` [Compound 11, (3β, 5α, 8α, 22E)-5,8-epidioxy-ergosta-6, 22-dien-3-ol] the IC50 ([1]; Homo sapiens, MDA-MB-231, 48 h) was 44.6 ± 1.9 µM, the IC50 [2, 5] was 34.8 ± 2.6 µM and the IC50 [2, 6] was 34.8 µM. It also gave an EC50 [3, 7] of 197 ± 11.3 µM and an EC50 ([4]; Homo sapiens, HUVEC) of 29.1 ± 3.2 µM.
With `CC(C)[C@@H](C)/C=C/[C@@H](C)[C@H]1CC[C@H]2C3=CC=C4C[C@@H](O)CC[C@]4(C)[C@H]3CC[C@]12C` [Compound 12, (3β, 22E)-ergosta-5,7, 22-trien-3-ol] the IC50 ([1]; Homo sapiens, MDA-MB-231, 48 h) was 69.7 ± 5.8 µM, the IC50 [2, 5] was 75.6 ± 4.7 µM and the EC50 [3, 7] was 261 ± 12 µM. The EC50 ([4]; Homo sapiens, HUVEC) was 72.4 ± 5.6 µM.
`CC(C)[C@@H](C)/C=C/[C@@H](C)[C@H]1CC[C@@H]2[C@]1(C)CC=C1[C@]23C=C[C@]2(C[C@@H](O)CC[C@]12C)OO3` [Compound 13, (3β, 5α, 8α, 22E)-5,8-epidioxy-ergosta-6, 9 (11), 22-trien-3-ol] was tested, and the IC50 ([1]; Homo sapiens, MDA-MB-231, 48 h) was 32.1 ± 3 µM, the IC50 [2, 5] was 44.5 ± 1.3 µM and the IC50 [2, 6] was 44.5 µM. It also gave an EC50 [3, 7] of 293 ± 17.2 µM and an EC50 ([4]; Homo sapiens, HUVEC) of 51.6 ± 2.8 µM.
In the case of `CC(C)[C@@H](C)/C=C/[C@@H](C)[C@H]1CC[C@@]2(O)C3=C(CC[C@]12C)[C@@]1(C)CC[C@H](O)C[C@@]12O[C@H]2C3=O` [Compound 14, (3β, 5α, 6α, 14α, 22E)-3, 14-dihydroxy-5,6-epoxy-ergosta-8, 22-dien-7-one], the IC50 ([1]; Homo sapiens, MDA-MB-231, 48 h) is reported as 189 ± 8.1 µM, the IC50 [2, 5] is reported as 201 ± 6.4 µM and the EC50 [3, 7] is reported as greater than 500 µM. It also gave an EC50 ([4]; Homo sapiens, HUVEC) of 321 ± 18.9 µM.
For `O=c1c(O)c(-c2ccc(O)cc2)oc2cc(O)cc(O)c12` [kaempferol, reference compound], the IC50 ([1]; Homo sapiens, MDA-MB-231, 48 h) was 56.6 ± 3.1 µM, the IC50 [2, 5] was 45.4 ± 3.4 µM and the IC50 [2, 6] was 45.4 µM. It also gave an EC50 [3, 7] of 356 ± 15.9 µM and an EC50 ([4]; Homo sapiens, HUVEC) of 35.5 ± 4.1 µM.
“(3β, 5α, 6β, 9α, 14α, 22E)-ergosta-7, 22-diene-3, 5, 6, 9, 14-pentol [Compound 8]” was tested, and the IC50 ([1]; 48 h) was 216 ± 14.3 µM, the “Experimental pIC50” value [2, 9] was 3.543 and the “decline of activity in comparison with compound 2” value ([2]; HepG2 IC50) was “approximately 4.6 folds”. The IC50 [2, 8] was 286 ± 18.9 µM, the EC50 ([3]; mean ± SD) was greater than 500 µM and the EC50 ([4]; read-out: EC50 HUVEC) was 357 ± 19.5 µM.
With “(3β, 5α, 6β, 9α, 22E)-ergosta-7, 22-diene-3, 5, 6, 9-tetrol [Compound 3]” the IC50 ([1]; 48 h) was 148 ± 5.8 µM, the “Experimental pIC50” value [2, 9] was 3.887 and the IC50 [2, 8] was 130 ± 3.4 µM. The EC50 ([3]; mean ± SD) was 365 ± 15.7 µM, the EC50 ([4]; read-out: EC50 HUVEC) was 84 ± 6.7 µM and the “selective inhibition, tumor cells versus HUVECs” value [4] was “selective inhibition against HUVECs”.
For “(3β, 5α, 6β, 14α, 22E)-ergosta-7, 9 (11), 22-triene-3, 5, 6, 14-tetrol [Compound 7]”, the IC50 ([1]; 48 h) was 169 ± 11.1 µM, the “Experimental pIC50” value [2, 9] was 3.806 and the IC50 [2, 8] was 156 ± 8.9 µM. It also gave an EC50 ([3]; mean ± SD) greater than 500 µM and an EC50 ([4]; read-out: EC50 HUVEC) of 188 ± 15.3 µM.
